Reference: patent US9028845B2, “Chimeric immunomodulatory compounds and methods of using the same-IV” (Dynavax Technologies Corporation, priority 2001, dated 2015)
“Also recorded” adds a separate entry of the source.

Key:
[1] = system: mice; assay: Serum cytokines (IL-12 p40, IL-6, TNF-α) after subcutaneous injection in mice; assay type: in vivo; details: 20 ug subcutaneous, blood 2 hours later
Protocol: Blood was collected 2 hours later. For the LPS positive control group, mice were injected intraperitoneally with a 200 ul volume, and blood was collected 1.5 hours later (i.e., at the peak of LPS induced TNF-α activity). The blood was clotted and the serum was prepared and stored at −80° C. until assayed. Serum cytokines were assayed using Biosource cytoscreen kits for TNF-α and Pharmingen antibody pairs for mIL-6 and mIL-12. All samples were assayed in duplicate.

[2] = system: PBMCs; assay: Human PBMC proliferation assay (3H-thymidine incorporation); assay type: cell-based; details: Experiment A; for mean cpm: 2 μg/ml
[3] = system: CD19+ B cells; assay: Human B cell proliferation assay (3H-thymidine incorporation); details: 2 μg/ml
[4] = system: human PBMCs; assay: Human PBMC cytokine response assay (IFN-γ and IFN-α in cell-free medium by ELISA), with or without cPLGA; assay type: cell-based;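 as to IFN-α (pg/ml) mean: 20 µg/mL compound for 24 hours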;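 as to IFN-γ (pg/ml) mean: 20 µg/mL compound for 24 hours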
[5] = B cells, Donor 146, Experiment A
[6] = B cells, Donor 147, Experiment A
[7] = Table 25, mean of donors 28250-28253
[8] = mean of Donors 1-2, 20 μg/ml, 24 h
[9] = mean of Donors 3-4, 20 μg/ml, 24 h

With “5′-TCGTCGA-3′ [Compound P-1, reference compound]” the “induction of serum IL-12 p40, IL-6 and TNF-α, in words” value [1] was “inactive”, the cpm1 ([2]; Donor 146, 2 μg/ml) was 9724 cpm and the cpm2 ([2]; Donor 146, 2 μg/ml) was 3041 cpm. For the same substance, the cpm3 ([2]; Donor 146, 2 μg/ml) was 2425 cpm, the mean cpm ([2]; Donor 146 mean) was 5063 cpm and the cpm1 ([2]; Donor 147, 2 μg/ml) was 1706 cpm. The cpm2 ([2]; Donor 147, 2 μg/ml) was 1960 cpm, the cpm3 ([2]; Donor 147, 2 μg/ml) was 324 cpm and the mean cpm ([2]; Donor 147 mean) was 1330 cpm. The mean of both ([2]; mean of Donors 146 and 147, 2 μg/ml) was 3197 cpm, the “B cell proliferation, in words” value ([3]; 48 h plus 8 h 3H-thymidine pulse) was “little to no B cell proliferation” and the cpm1 [3, 5] was 761 cpm. It also gave a cpm2 [3, 5] of 608 cpm, a cpm3 [3, 5] of 721 cpm and a mean cpm ([3]; B cells, Donor 146 mean, Experiment A) of 697 cpm. For the same substance, the cpm1 [3, 6] was 569 cpm, the cpm2 [3, 6] was 460 cpm and the cpm3 [3, 6] was 687 cpm. The mean cpm ([3]; B cells, Donor 147 mean, Experiment A) was 572 cpm, the mean of both ([3]; B cells, mean of Donors 146 and 147, Experiment A) was 634 cpm and the “IFN-α (pg/ml) Donor 1” value ([4]; Donor 1, 20 μg/ml, 24 h) was 0 pg/mL. The “IFN-γ (pg/ml) Donor 1” value ([4]; Donor 1, 20 μg/ml, 24 h) was 8 pg/mL, the “IFN-α (pg/ml) Donor 2” value ([4]; Donor 2, 20 μg/ml, 24 h) was 0 pg/mL and the “IFN-γ (pg/ml) Donor 2” value ([4]; Donor 2, 20 μg/ml, 24 h) was 0 pg/mL. The “IFN-α (pg/ml) Donor 3” value ([4]; Donor 3, 20 μg/ml, 24 h) was 0 pg/mL, the “IFN-γ (pg/ml) Donor 3” value ([4]; Donor 3, 20 μg/ml, 24 h) was 1 pg/mL and the “IFN-α (pg/ml) Donor 4” value ([4]; Donor 4, 20 μg/ml, 24 h) was 32 pg/mL. The “IFN-γ (pg/ml) Donor 4” value ([4]; Donor 4, 20 μg/ml, 24 h) was 4 pg/mL, the IFN-a ([4]; Table 25, donor 28250) was 16 pg/mL and the IFN-g ([4]; Table 25, donor 28250, polynucleotides/spacers at amounts equivalent to the CIC, spacers alone 9 uM) was 54 pg/mL. The IFN-a ([4]; Table 25, donor 28251) was 16 pg/mL, the IFN-g ([4]; Table 25, donor 28251) was 21 pg/mL and the IFN-a ([4]; Table 25, donor 28252) was 16 pg/mL. It also gave an IFN-g ([4]; Table 25, donor 28252) of 56 pg/mL, an IFN-a ([4]; Table 25, donor 28253) of 16 pg/mL and an IFN-g ([4]; Table 25, donor 28253) of 1 pg/mL. The IFN-a mean [4, 7] was 16 pg/mL, the IFN-g mean [4, 7] was 33 pg/mL and the “IFN-α (pg/ml) mean” value [4, 8] was 0 pg/mL. The “IFN-γ (pg/ml) mean” value [4, 8] was 4 pg/mL, the “IFN-α (pg/ml) mean” value [4, 9] was 16 pg/mL and the “IFN-γ (pg/ml) mean” value [4, 9] was 2 pg/mL. For the same substance, the “immunomodulatory activity (IFN-γ / IFN-α secretion), in words” value ([4]; used alone (no cPLGA)) was “no activity; also recorded: did not have immunomodulatory activity”.
5′-AACGTT-3′ [Compound P-11] was tested, and the “induction of serum IL-12 p40, IL-6 and TNF-α, in words” value [1] was “inactive”.
